Test results taken from patent US9855292B2, “Cyanocobalamin, methylcobalamin, and/or adenosylcobalamin to help maintain a pain-free head and pain-free body and provide defense against headaches and body pain” (priority 2013, dated 2018).
Where two headings read alike, the source gives them in different places.

Columns and labels:
migraine patients [1] = details: cited from earlier work; for mean migraine severity: 0-3 scale, all subjects
[2] = tested on: human subjects with demonstrated seasonal allergic rhinitis (hay fever); experiment: Example 1 clinical study: reports of Headache after 21 days of study medication; format: in vivo; details: for post-treatment reports of Headache, decrease from baseline: active group
Experimental: This clinical study was designed and directed by the inventor of the current patent. […] Subjects were given their study medication, either Cyanocobalamin, USP or placebo in the a.m. and p.m. every day for 21 consecutive days. Data on adverse events including headache was captured throughout the ten-week duration of the study. Week One was a baseline during which time no medication was administered; Weeks Two, Three and Four were the weeks during which time the subjects received their study medication; and Weeks Five through Ten were a post-treatment period during which time no medication was administered but observations of symptoms and adverse events were documented. Each time a subject felt a “Headache”, he or she reported its occurrence.

[3] = tested on: moderate to moderately severe seasonal allergic rhinitis in humans; experiment: Example 2 Phase 3 study: allergy symptom scores; format: in vivo, human; details: Weeks 4, 5 and 6; ITT; sneezing, runny nose, nasal congestion, nasal itch and eye itch
Description: (§1) This clinical study was designed and directed by the inventor of the current patent. A large, multi-center, Phase 3, randomized, placebo-controlled clinical study on 1,551 patients was designed and directed by the inventor of the current patent. Methods: The study was titled: “A Phase 3, randomized, double-blind, placebo-controlled, parallel group study of the safety and efficacy of pre-seasonal sublingual cyanocobalamin lozenges on moderate to moderately severe seasonal allergic rhinitis in humans”. The study took place before and during the ragweed pollen season at 23 study sites in the Midwest, Northeast and Central Texas regions of the United States. Essentially all of the 23 investigators were Board Certified in Allergy/Immunology. Qualified subjects were randomized into an active or placebo group (approximately 50% and 50%) using an interactive voice recognition system (IVRS). All subjects (or their guardians) signed an Informed Consent form approved by the IRB. Each subject had three visits to the clinic. […] The blood samples were analyzed by chemiluminescent immunoassay for the presence of ragweed specific immunoglobulin epsilon (IgE), and were assayed for cobalamins (cyanocobalamin, methylcobalamin and adenosylcobalamin) levels. […]

[4] = tested on: headache and body pain in humans; experiment: Example 2 Phase 3 study: documented reports of headache and body pain; format: in vivo, human; details: active group
Description: This clinical study was designed and directed by the inventor of the current patent. A large, multi-center, Phase 3, randomized, placebo-controlled clinical study on 1,551 patients was designed and directed by the inventor of the current patent. Methods: The study was titled: “A Phase 3, randomized, double-blind, placebo-controlled, parallel group study of the safety and efficacy of pre-seasonal sublingual cyanocobalamin lozenges on moderate to moderately severe seasonal allergic rhinitis in humans”. The study took place before and during the ragweed pollen season at 23 study sites in the Midwest, Northeast and Central Texas regions of the United States. Essentially all of the 23 investigators were Board Certified in Allergy/Immunology. Qualified subjects were randomized into an active or placebo group (approximately 50% and 50%) using an interactive voice recognition system (IVRS). All subjects (or their guardians) signed an Informed Consent form approved by the IRB. Each subject had three visits to the clinic. At Visit 1 and at Visit 3, they were given a physical exam (HEENT, chest, lungs, heart, vital signs, height and weight); and donated blood and urine samples for laboratory analysis. CBC and chemistry panels were run for safety analyses. The blood samples were analyzed by chemiluminescent immunoassay for the presence of ragweed specific immunoglobulin epsilon (IgE), and were assayed for cobalamins (cyanocobalamin, methylcobalamin and adenosylcobalamin) levels.
Subjects were given their study medication, either 3.3 mg Cyanocobalamin, USP or placebo in the a.m. and p.m. Subjects were instructed to let the study drug “dissolve completely in your mouth, especially under your tongue, then swallow.”. Subjects self-administered the study medications for six consecutive weeks.
Any adverse event (AE) or serious adverse event (SAE) was documented by the subject in a paper diary and then transcribed to the appropriate case report form (CRF) page. All SAEs were attended to by the investigator, and reported to the FDA by the sponsor. All sites were monitored multiple times by qualified monitors.
The following types of headaches were self-diagnosed and documented by subjects in the study: tension headache, headache, migraine, increased frequency of headaches, worsening sinus migraine headache, increased headache, headache worsening, worsening of migraine, sinus headache, severe sinus headache, and sinus pressure headache.
The following types of body pains and myasthenia were self-diagnosed and documented by subjects in the study: ear pain, earache, sore throat, sore muscles, leg cramps, myalgia, back pain, sprained ankle, ache, toothache, hip pain, finger pain, knee pain, pulled back muscle, shoulder pain, pulled hamstring, neck pain, femur pain, gum pain, sore muscle, toenail pain, sore foot, and pulled neck muscle.

[5] = Example 2 Phase 3 study: blood serum cobalamin levels; format: in vivo, human; details: cyanocobalamin, methylcobalamin and adenosylcobalamin; 3.3 mg a.m. and p.m., six weeks
Description: as §1

[6] = Example 2 Phase 3 study: safety; format: in vivo, human; details: 3.3 mg a.m. and p.m., six weeks
Description: This clinical study was designed and directed by the inventor of the current patent. A large, multi-center, Phase 3, randomized, placebo-controlled clinical study on 1,551 patients was designed and directed by the inventor of the current patent. Methods: The study was titled: “A Phase 3, randomized, double-blind, placebo-controlled, parallel group study of the safety and efficacy of pre-seasonal sublingual cyanocobalamin lozenges on moderate to moderately severe seasonal allergic rhinitis in humans”. The study took place before and during the ragweed pollen season at 23 study sites in the Midwest, Northeast and Central Texas regions of the United States. Essentially all of the 23 investigators were Board Certified in Allergy/Immunology. Qualified subjects were randomized into an active or placebo group (approximately 50% and 50%) using an interactive voice recognition system (IVRS). […] The blood samples were analyzed by chemiluminescent immunoassay for the presence of ragweed specific immunoglobulin epsilon (IgE), and were assayed for cobalamins (cyanocobalamin, methylcobalamin and adenosylcobalamin) levels.
Any adverse event (AE) or serious adverse event (SAE) was documented by the subject in a paper diary and then transcribed to the appropriate case report form (CRF) page. […] All sites were monitored multiple times by qualified monitors.

migraine patients [7] = details: 2 mg intramuscularly every two weeks for two months, cited from earlier work

Molecule: C/C1=C2/[N-][C@H]([C@H](CC(N)=O)[C@@]2(C)CCC(=O)NC[C@@H](C)OP(=O)([O-])O[C@H]2[C@@H](O)[C@@H](n3cnc4cc(C)c(C)cc43)O[C@@H]2CO)[C@]2(C)N=C(/C(C)=C3N=C(/C=C4N=C1[C@@H](CCC(N)=O)C\4(C)C)[C@@H](CCC(N)=O)[C@]\3(C)CC(N)=O)[C@@H](CCC(N)=O)[C@]2(C)CC(N)=O.[Co+3].[OH-] [hydroxocobalamin]
- mean migraine severity (migraine patients [1]; at baseline): 2.2
- mean migraine severity (migraine patients [1]; at the end of the study): 2.1
- effect on migraine (migraine patients [1]; intranasal, unblinded, open-label, 19 migraine patients): can have an effect on migraine

Molecule: 5,6-dimethylbenzimidazolyl cyanocobamide [cyanocobalamin]
- post-treatment reports of Headache, decrease from baseline ([2]; Week Eight): −2.1
- post-treatment reports of Headache, decrease from baseline ([2]; Week Five): −1.4
- post-treatment reports of Headache, decrease from baseline ([2]; Week Nine): −3.4
- post-treatment reports of Headache, decrease from baseline ([2]; Week Seven): −1.4
- post-treatment reports of Headache, decrease from baseline ([2]; Week Six): −1.6
- post-treatment reports of Headache, decrease from baseline ([2]; Week Ten): −3.2
- persistence of effect per follow-up questionnaire ([2]; almost one year later, 43 active and 49 placebo subjects): persistence of effect lasting almost one year
- persistence of effect after finishing the treatment ([2]; post-treatment Weeks Five through Ten): at least six weeks
- greater reduction in the frequency of headache in the active group versus placebo ([2]; six post-treatment weeks): five out of six post-treatment weeks
- reduction in allergy symptom severity from baseline versus placebo [3]: greater for the active group than the placebo group
- headache and body pain reports rated Mild [4]: 63 reports
- headache and body pain reports rated Mild, share [4]: 46.0%
- headache and body pain reports rated Moderate [4]: 68 reports
- headache and body pain reports rated Moderate, share [4]: 49.6%
- headache and body pain reports rated Severe [4]: 6 reports
- headache and body pain reports rated Severe, share [4]: 4.4%
- documented reports of some type of headache and of body pain ([4]; of 294 reports in total): 137 reports
- average increase in post-treatment blood serum cobalamin levels [5]: more than 250%
- safety / tolerability [6]: well tolerated
- authors' conclusion on therapeutic effect (migraine patients [7]): no therapeutic effect attributable to cyanocobalamin was demonstrated
- patients reporting Considerable improvement (migraine patients [7]; active n=15): 2
- patients reporting Good result (migraine patients [7]; active n=15): 4
